These results are taken from PMC12206033, “Selective inhibition of TRPV3 channel by natural rosmarinic acid and its analogs for alleviation of skin lesions through downregulation of NF-κB pathway” (The Journal of Biological Chemistry, 2025).

The target of series [1] is T1, hTRPV3 (Homo sapiens, UniProt Q8NET8).
T1 construct: expressed in transfected cells; host or cells: HEK293T
T1 sequence (Q8NET8 1-790): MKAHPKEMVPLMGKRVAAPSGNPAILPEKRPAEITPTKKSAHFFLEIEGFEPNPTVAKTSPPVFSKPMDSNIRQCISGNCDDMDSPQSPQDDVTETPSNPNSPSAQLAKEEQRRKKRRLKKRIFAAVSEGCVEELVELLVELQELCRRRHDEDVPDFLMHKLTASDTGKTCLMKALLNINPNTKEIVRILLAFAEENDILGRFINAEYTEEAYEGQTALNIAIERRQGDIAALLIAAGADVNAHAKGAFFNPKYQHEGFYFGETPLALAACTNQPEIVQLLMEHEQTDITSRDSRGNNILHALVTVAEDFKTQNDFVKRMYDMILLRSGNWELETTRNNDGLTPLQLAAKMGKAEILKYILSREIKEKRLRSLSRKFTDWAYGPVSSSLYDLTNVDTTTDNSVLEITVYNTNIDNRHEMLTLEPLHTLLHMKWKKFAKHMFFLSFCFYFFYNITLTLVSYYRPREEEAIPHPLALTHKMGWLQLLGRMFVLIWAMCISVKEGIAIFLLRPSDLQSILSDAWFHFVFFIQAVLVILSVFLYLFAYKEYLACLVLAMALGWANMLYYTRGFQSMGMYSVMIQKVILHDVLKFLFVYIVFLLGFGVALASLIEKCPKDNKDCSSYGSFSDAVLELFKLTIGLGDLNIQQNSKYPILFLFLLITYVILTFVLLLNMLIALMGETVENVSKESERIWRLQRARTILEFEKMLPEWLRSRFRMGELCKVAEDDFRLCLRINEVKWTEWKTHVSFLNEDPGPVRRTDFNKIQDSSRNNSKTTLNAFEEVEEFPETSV
In words: single-channel inside-out patch recordings of hTRPV3 in HEK293T cells. The format is cell-based. As to conditions: 2-APB 50 μM or Car 300 μM alone, n = 5. Here is the method: HEK293T cell line was obtained from the Cell Resource Center, Peking Union Medical College. HEK293T cells were maintained in Dulbecco’s modified Eagle’s medium (DMEM, Gibco) supplemented with 10% fetal bovine serum at 37 °C with 5% CO2. HEK293T cells were seeded onto glass coverslips 1 day in advance and transiently transfected with […] complementary deoxyribonucleic acids of human TRPV3 (hTRPV3, accession number NM_145068.4), hTRPV1 (accession number NM_080704.3), mTRPV2 (accession number NM_011706.2), hTRPV4 (accession number NM_021625.5), hTRPA1 (accession number NM_007332.3), and hTRPM8 (accession number NM_024080.5) through Lipofectamine 2000 (Invitrogen) following the manufacture’s protocol. The next day, determine the plasmid transfection status by observing green fluorescence based on expression of enhanced GFP as an indicator. […] As for the relative fluorescence intensity, we convert the image to 8 bit grayscale using ImageJ (Https://imagej.net/software/fiji/downloads) and set an appropriate threshold value to reduce background noise and enhance the image contrast.
(§1) All patch-clamp recordings were conducted 16 to 24 h after transfection using an EPC10 amplifier powered by PatchMaster software (HEKA) (https://www.heka.com/downloads/downloads_main.html#down_patchmaster) at room temperature. The borosilicate glass pipettes were pulled using a DMZ universal electrode puller (Zeitz-Instruments GmbH) to achieve the resistances of three to 5 MΩ (for whole-cell recordings) or five to 9 MΩ (for inside-out patch recordings). Currents were recorded at a potential ramp from −100 mV to +100 mV for 1000 ms with 1000-ms intervals (for whole-cell recordings) or a persistent potential of −60 mV (inside-out patch recordings). Both pipette solution and bath solution contained (in mM): 130 NaCl, 3 Hepes, and 0.2 EDTA (pH = 7.2–7.4). All recording data were analyzed using Igor Pro (Wave-metrics) (https://www.wavemetrics.com/order/order_igordownloads.htm) and Origin 8.6 (Origin Lab) (https://www.originlab.com/doc/zh/Quick-Help/Download-Installer).

In series [2] the target is T1, hTRPV3. In words: whole-cell patch-clamp of hTRPV3 currents in HEK293T cells activated by 2-APB. The class given is cell-based. As to conditions: for inhibition at 50 µM: HEK-293T, compound 50 μM, agonist 2-APB 50 μM, Fig. 3I, n = 4-5, read-out: inhibition of hTRPV3 currents; for IC50: evoked by 2-APB 50 μM, outward currents at +80 mV, HEK293T, Fig. 3J, n = 5-7, read-out: IC50, inhibition of whole-cell hTRPV3 currents. Here is the method: (§2) HEK293T cell line was obtained from the Cell Resource Center, Peking Union Medical College. HEK293T cells were maintained in Dulbecco’s modified Eagle’s medium (DMEM, Gibco) supplemented with 10% fetal bovine serum at 37 °C with 5% CO2. HEK293T cells were seeded onto glass coverslips 1 day in advance and transiently transfected with […] complementary deoxyribonucleic acids of human TRPV3 (hTRPV3, accession number NM_145068.4), hTRPV1 (accession number NM_080704.3), mTRPV2 (accession number NM_011706.2), hTRPV4 (accession number NM_021625.5), hTRPA1 (accession number NM_007332.3), and hTRPM8 (accession number NM_024080.5) through Lipofectamine 2000 (Invitrogen) following the manufacture’s protocol. The next day, determine the plasmid transfection status by observing green fluorescence based on expression of enhanced GFP as an indicator. All WT or mutant hTRPV3 complementary deoxyribonucleic acid plasmids were confirmed by DNA sequencing. When conducting experiments on HEK293T cells transfected with G573S point mutant TRPV3 plasmid, we replaced culture medium with or without compounds after 4 h of transfection and then observed green fluorescence of HEK293T cell after 10 h. As for the relative fluorescence intensity, we convert the image to 8 bit grayscale using ImageJ (Https://imagej.net/software/fiji/downloads) and set an appropriate threshold value to reduce background noise and enhance the image contrast.
as §1

In series [3] the test system is Car-induced ear swelling and dorsal skin inflammation in mice. In words: mouse model of ear swelling and dorsal skin inflammation induced by skin sensitizer Car (3%). The format is in vivo. The source says:
Adult C57BL/6J mice (aged 6–8 weeks, weighing 20 ± 2 g) were purchased from the Beijing Vital River Laboratory Animal Technology Co. Ltd. TRPV3-KO mice were purchased from Cyagen Biosciences Inc. All mice were housed in plastic cages with natural poplar wood bedding materials, accommodating three to five mice per cage. The housing environment was maintained at a controlled room temperature of (23 ± 2) °C and humidity of (50 ± 5) %, with 12-h light/dark cycle (lights on at 7:00 AM and off at 7:00 PM). Mice had free access to food and water. All animal test protocols were approved by the Institutional Animal Care and Use Committee of Qingdao University Health Science Center and were conducted in accordance with institutional and national guidelines for the use and care of animals in experiments. All mice were anesthetized with isoflurane (1%–1.5%) using an isoflurane gas anesthesia device and were euthanized under anesthesia.
(§3) Skin sensitizer Car was dissolved in saline solution containing 30% ethanol. The dorsal skin or ear of mice was swabbed with 3% Car for four consecutive days. To investigate the effects of ROSA, it was diluted to concentration of 0.1/1/10 mM with saline and topically applied on the ear and dorsal skin once a day for 4 days. The control group only received swabs with the solvent.

The subject of series [4] is TRPV3, IL-6, TNF-α, and p-P65 protein expressions. In words: Western blot of TRPV3 and NF-κB pathway proteins in mouse ear tissues. The class given is in vivo. As to conditions: mouse ear tissues treated with 3% Car; day 5. The protocol:
as §3
Skin or ear skin tissues were homogenized in radioimmunoprecipitation assay buffer (Thermo Fisher Scientific) containing protease inhibitors at a ratio of 100:1 per 10 mg tissue and centrifuged at 15,000 rpm for 15 min. The protein concentration was quantified using a bicinchoninic acid kit (Thermo Fisher Scientific), followed by SDS-PAGE for Western blot analysis. Protein transfer was performed at 150 mA for 90 min, and the transferred membranes (Millipore) were incubated with primary antibodies (TRPV3 antibody, 1:1000, TNF-α antibody, 1:1000, IL-6 antibody, 1:2500, P65 antibody, 1:1000 and p-P65 antibody, 1:1000) in 5% skim milk (Becton, Dickinson and Company). […] Images were quantified using the Image Lab software (https://www.bio-rad.com/zh-cn/product/image-lab-software?ID=KRE6P5E8Z).
Background: Immunoblotting shows a protein as a band on a membrane.

For series [5], the system named is HEK293T cells expressing hTRPV3. In words: Hoechst 33342/propidium iodide double staining cell death assay. The format is cell-based. The protocol:
For cell death assay, HEK293T cells transfected with hTRPV3 were seeded in 6-well plates and randomly divided into different groups. TRPV3 and NF-κB inhibitors were added 1 h before the addition of Car. After administration of Car for 1 h, cell death was detected using Hoechst 33342/propidium iodide Double Stain Kit (Solarbio). After staining, cells were resuspended with PBS buffer. Five random view images in each group were taken under a microscope (Eclipse Ti, Nikon) and counted using ImageJ software (National Institutes of Health).

Series [6] is described as follows: CCK-8 cell viability assay. The class given is cell-based. The following applies: human, HEK293T cells expressing hTRPV3, Car 300 μM for 1 h, read-out: cell viability rate, Car alone. Here is the method: For cell viability assay, hTRPV3-HEK293T cells were seeded in 96-well plates for 12 to 16 h before exposed to Car in DMEM containing 2% fetal bovine serum for 1 h. TRPV3 and NF-κB inhibitors were added 1 h before the addition of Car. After removing the medium containing chemical compounds, hTRPV3-HEK293T cells were incubated with DMEM containing 10% CCK-8 (TargetMol) for 1 h. Cell viability was then assessed using the Sunrise microplate reader under the light absorbance at 450 nm (TECAN, CH).
For orientation: Tetrazolium assays rely on reduction of a dye to a coloured formazan, in cell work by metabolically active cells.

Series [7] has as its system HEK293T cells expressing G573S-TRPV3. In words: green fluorescence of live HEK293T cells transfected with gain-of-function mutant GFP-TRPV3-G573S. The format is cell-based, human. As to conditions: compound 20 μM. Here is the method: as §2, with “All WT or mutant hTRPV3 complementary deoxyribonucleic acid plasmids were confirmed by DNA sequencing.” left out
In the next series the test system is NF-κB p-P65. As to conditions: no reference given; read-out: IC50 of NF-κB p-P65 inhibitor; cited from earlier work.
Setting [8] is: topical JSH-23 20 μM in 100 μl coapplied with Car for consecutive 4 days, mouse dorsal skin.
Setting [9] is: inhibitor 20 μM added 1 h before Car 300 μM.

Broadly, the inhibition is the drop in the measured response relative to a control, in per cent. Usually IC50 stands for the midpoint of a concentration-inhibition curve. For orientation: viability means a read-out of living cells in per cent, often relative to untreated cells.

`NCCOB(c1ccccc1)c1ccccc1` [2-APB, 2-aminoethoxydiphenyl borate, reference compound]: the “single-channel open probability, agonist alone” value at hTRPV3 [1] worked out at 0.67 ± 0.05.
As for `O=C(/C=C/c1ccc(O)c(O)c1)NCCc1ccc(O)c(O)c1` [CADA, (E)-3-(3,4-dihydroxyphenyl)-N-(2-(3,4-dihydroxyphenyl)ethyl)-2-propenamide], on hTRPV3 [2], the inhibition at 50 µM is ~40.1% and the IC50 worked out at 67.7 ± 22.4 µM.
With `Cc1ccc(C(C)C)cc1O` [Car, carvacrol, reference compound], the “single-channel open probability, agonist alone” value on hTRPV3 [1] is recorded as 0.77 ± 0.09. For the same molecule, in series [3] (topical Car for consecutive 4 days, WT mice), the “ear skin inflammation, thickness and ear swelling scores, Car alone” value is “ear skin inflammation with significantly increased thickness and ear swelling scores”. In series [4], the “protein expressions of TRPV3, IL-6, TNF-α, and p-P65, Car alone” value was “upregulated”. In series [5] (Car 300 μM for 1 h, vehicle control 8%), the “cell death ratio, Car alone” value stood at 30%. Further, in series [6], the viability at 1 h, 300 μM was found to be 72%.
With `Cc1ccc(NCCCc2ccccc2)c(N)c1` [JSH-23], in series [3] (setting [8]), the dermatitis scores entry was “reduction of dermatitis scores” and the dorsal skin inflammation entry was “significant alleviation of the dorsal skin inflammation”. For the same molecule, in series [7], the “green fluorescence of live cells” value was “robust green fluorescence”. Also, the cell death ratio in series [5] (inhibitor 5 μM added 1 h before Car 300 μM) worked out at 21%. Moreover, the cell death ratio in series [5] (setting [9]) is listed as 17%. In the series on NF-κB p-P65, the IC50 is 7.1 µM.
As to `COC(=O)[C@@H](Cc1ccc(O)c(O)c1)OC(=O)/C=C/c1ccc(O)c(O)c1` [MROSA, methyl rosmarinate], at hTRPV3 [2], the inhibition at 50 µM came out at 9 ± 5.2% and the IC50 was 157 ± 34.5 µM.
As to `N.N.N.N.N.N.N.N.N.N.N.N.N.N.[Cl-].[Cl-].[Cl-].[Cl-].[Cl-].[Cl-].[O-2].[O-2].[Ru+3].[Ru+3].[Ru+4]` [RR, ruthenium red], in series [7], the “green fluorescence of live cells” value is reported as “robust green fluorescence”. For the same molecule, the cell death ratio in series [5] (setting [9]) stood at 23%.
